# Assay results: paper PMC9042912, “T cell receptor and IL-2 signaling strength control memory CD8^+ T cell functional fitness via chromatin remodeling” (Nature Communications, 2022)
# Several values for one entry are separate records, joined by “and”; a condition that tells them apart may be missing. Equal values may be shown once. Read-outs that look alike come from different tables or passages of the source. No end group written: not given here.
# How the values were obtained:
# H2-K^b = molecular target: T1, H2-K^b (Mus musculus, UniProt P01901); assay: cell-based
# T1 construct: RMA-S cells were added per well to a 96-well flat-bottom plate and incubated at 30 °C overnight; endogenous in cells; host or cells: RMA-S cells (TAP-deficient), obtained from Dr. Steve Porcelli
# T1 sequence (P01901 22-369): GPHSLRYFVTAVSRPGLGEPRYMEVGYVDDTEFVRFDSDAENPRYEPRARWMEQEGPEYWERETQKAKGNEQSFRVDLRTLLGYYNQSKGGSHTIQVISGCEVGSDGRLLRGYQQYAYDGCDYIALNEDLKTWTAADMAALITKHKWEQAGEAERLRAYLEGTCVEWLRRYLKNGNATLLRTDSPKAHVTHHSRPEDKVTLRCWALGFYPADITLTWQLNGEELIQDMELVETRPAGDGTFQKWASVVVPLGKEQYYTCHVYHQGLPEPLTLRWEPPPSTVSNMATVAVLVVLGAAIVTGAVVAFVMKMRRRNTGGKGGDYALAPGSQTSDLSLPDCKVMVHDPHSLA
# T1 sequence (P01887 21-119 partner): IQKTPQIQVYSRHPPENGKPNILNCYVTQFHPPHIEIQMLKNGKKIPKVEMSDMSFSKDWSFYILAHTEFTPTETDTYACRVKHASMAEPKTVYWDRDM
# OT-I cells = assay type: in vivo, mouse; details: for % Il2ra mut/mut among OT-I / % WT among OT-I: individual values
# [1] = test system: OT-I, gBT-I, P14, L9.6 T cells; details: mouse
# H2-D^b = H2-D^b (Mus musculus, UniProt P01899); assay type: cell-based
# H2-D^b, sequence (P01899 25-362, one chain of several): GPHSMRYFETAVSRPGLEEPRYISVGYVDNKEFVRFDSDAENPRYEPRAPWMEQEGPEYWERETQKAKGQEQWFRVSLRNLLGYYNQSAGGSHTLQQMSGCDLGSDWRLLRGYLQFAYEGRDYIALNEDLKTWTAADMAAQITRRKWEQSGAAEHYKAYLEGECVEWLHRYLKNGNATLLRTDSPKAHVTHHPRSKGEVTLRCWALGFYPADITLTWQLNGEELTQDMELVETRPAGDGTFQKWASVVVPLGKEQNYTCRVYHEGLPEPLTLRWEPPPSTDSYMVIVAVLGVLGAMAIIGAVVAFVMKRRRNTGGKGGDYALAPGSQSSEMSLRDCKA
compound,measurement,setting,value
CC[C@H](C)[C@H](NC(=O)[C@@H](NC(=O)[C@@H](N)CO)[C@@H](C)CC)C(=O)N[C@@H](CC(N)=O)C(=O)N[C@@H](Cc1ccccc1)C(=O)N[C@@H](CCC(=O)O)C(=O)N[C@@H](CCCCN)C(=O)N[C@@H](CC(C)C)C(=O)O [N4],Kd,H2-K^b,0.111 µM
SIIQFEKL [Q4],Kd,H2-K^b,0.065 µM
SSIEFARL [gB498-505],Kd,H2-K^b,0.032 µM
SIITFEKL [T4],Kd,H2-K^b,0.059 µM
diphtheria toxin [DT],decrease of primary OT-I cell expansion,OT-I cells; CD11c+ cell depletion 2 days after Lm-Ova infection,~ 50%
same,% Il2ra mut/mut among OT-I,OT-I cells; Memory + DT,29.30% and 45.50% and 51.90% and 25.10% and 25.90% and 50.30% and 56.40%
same,% WT among OT-I,OT-I cells; Memory + DT,70.10% and 54.40% and 47.80% and 74.30% and 73.60% and 49.50% and 43.40%
same,% Il2ra mut/mut among OT-I,OT-I cells; Primary + DT,4.26% and 7.74% and 13.10% and 8.93% and 11.40% and 29.60% and 21.10% and 24.20% and 24.80% and 4.23%
same,% WT among OT-I,OT-I cells; Primary + DT,91.80% and 86.30% and 90.50% and 87.80% and 89.00% and 69.30% and 77.20% and 73.40% and 64.60% and 95.20% and 95.30%
same,% OT-I,"OT-I cells; depletion of CD11c+ cells in CD11c-DTR mice, compared with control group, each value one mouse (Suppl. Fig. 4B)",4.98% and 8.05% and 8.87% and 13.60%
KAVYNFATC [GP33-41],duration for which the Lm-expressed epitope induces naïve T cell proliferation in vivo,[1],~ 2 days
same,formation of stable complexes with D^b,H2-D^b,form stable MHC class I complexes
